In patent US10570179B2, “Substituted urea depsipeptide analogs as activators of the CLPP endopeptidase” (priority 2016, dated 2020):
Converted amounts (≈) assume the structure as drawn. Read-outs that look alike come from different tables or passages of the source. Numbered stars: 1 amine (or outer) side, 2 acyl side, 3 side chain; on linkers, the order of the positions; unused ones are H or OH. Bridge positions count the residues as written; N and C are the ends. Square brackets hold non-standard residues; d marks the D form. Peptide text beside a SMILES is read from it. * marks the point of attachment. Piperazine(2S-CO,4-Me) = CN1CCN[C@H](C(=O)O)C1; Phe(3,5-F2) = N[C@@H](Cc1cc(F)cc(F)c1)C(=O)O; NH(1-Me-indolin-5-yl) = CN1CCc2cc(N*)ccc21; Morpholine(3S-CO) = O=C(O)[C@@H]1COCCN1; Phe(3-Me) = Cc1cccc(C[C@H](N)C(=O)O)c1; NH(4-Cl-2-F-phenyl) = Fc1cc(Cl)ccc1N*; Pro(4R-Me) = C[C@H]1CN[C@H](C(=O)O)C1; Hyp = O=C(O)[C@@H]1C[C@@H](O)CN1; aThr = C[C@H](O)[C@H](N)C(=O)O; Pip = O=C(O)[C@@H]1CCCCN1; CO = O=C([*:1])[*:2]

Assays:
S. pyogenes = assay: Minimal inhibitory concentration, microbroth dilution; format: cell-based; settings: Streptococcus pyogenes, read-out: Minimal Inhibitory Concentrations (μM) S. pyogenes
Procedure, shortened: (§1)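 MICs were determined by CLSI broth microdilution, using two-fold compound dilutions from a final 200 μM and about 10^5 cfu/mL inoculum. Plates were incubated aerobically at 37 °C overnight. The MIC was read visually as the lowest concentration preventing growth.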

S. pneumoniae = assay: as above; format: cell-based; settings: Streptococcus pneumoniae, read-out: Minimal Inhibitory Concentrations (μM) S. pneumoniae
Procedure, shortened: as §1

B. subtilis = assay: as above; format: cell-based; settings: Bacillus subtilis, read-out: Minimal Inhibitory Concentrations (μM) B. subtilis
Procedure, shortened: as §1

Plasma pharmacokinetics = format: in vivo, male BALB/c mice; settings: male, BALB/c, mouse, in vivo, iv; for Vd: 10 mg/kg, Route i.v., read-out: Vss
[1] = Microsomal metabolic stability; format: in vitro ADME, human
[2] = Plasma protein binding, rapid equilibrium dialysis; format: in vitro ADME, human; settings: 10 μM
Procedure, shortened: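 Compound spiked at 10 μM (0.1% DMSO) into human plasma, dialysed against DPBS pH 7.4 across 8 K MWCO RED membrane for 4 h at 37 °C with shaking. Both chambers quantified by LC-MS against warfarin internal standard; % free = buffer/plasma concentration ×100, % bound = 100 − % free.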

SMILES | MIC (S. pyogenes; MIC) [µM] | MIC (S. pneumoniae; MIC) [µM] | MIC (B. subtilis; MIC) [µM] | AUC(0-inf) (Plasma pharmacokinetics) [ng·h/mL] | AUC(0-t) (Plasma pharmacokinetics) [ng·h/mL] | C^0 (Plasma pharmacokinetics) [ng/mL] | clearance (Plasma pharmacokinetics) [mL/min/kg] | half-life (Plasma pharmacokinetics) [h] | Vd (Plasma pharmacokinetics) [L/kg] | Human ([1]; human, pH 7.4) | Human ([2]; human, 4 h, pH 7.4) [%] | MIC (S. pyogenes) [µM] | MIC (S. pneumoniae) [µM] | MIC (B. subtilis) [µM] | Human ([1]; microsomal metabolic stability half-life, human liver microsomes) | Human ([2]; plasma binding, % Bound, human plasma) [%]
Cc1cccc(C[C@H](NC(=O)Nc2ccc(Cl)cc2F)C(=O)N[C@@H]2C(=O)N3C[C@H](O)C[C@H]3C(=O)N3CCCC[C@H]3C(=O)N[C@@H](C)C(=O)N3C[C@H](C)C[C@H]3C(=O)O[C@H]2C)c1 [Compound 6, (S)-2-(3-(4-CHLORO-2-FLUOROPHENYL)UREIDO)-N-((2R,6S,8AS,14AS,16R,20S,21S,23AS)-16-HYDROXY-2,6,21-TRIMETHYL-5,8,14,19,23-PENTAOXOOCTADECAHYDRO-1H,5H,14H,19H-PYRIDO[2,1-I]DIPYRROLO[2,1-C:2′,1′-L][1]OXA[4,7,10,13]TETRAAZACYCLOHEXADECIN-20-YL)-3-(M-TOLYL)PROPANAMIDE] ({NH(4-Cl-2-F-phenyl)-CO}-[Phe(3-Me)][aThr][Hyp][Pip]A[Pro(4R-Me)]; ester 2-C) | 0.156 (≈ 0.131 µg/mL) | 0.039 (≈ 0.0328 µg/mL) | 0.156 (≈ 0.131 µg/mL) | 11900 | 11500 | 34296.43 | 14 | 2.82 | 1.02 | 4.83 ± 1.5 h | 99.7 ± 0 |  |  |  |  | 
Cc1cccc(C[C@H](NC(=O)Nc2ccc(Cl)cc2F)C(=O)N[C@@H]2C(=O)N3CCC[C@H]3C(=O)N3CCN(C)C[C@H]3C(=O)N[C@@H](C)C(=O)N3C[C@H](C)C[C@H]3C(=O)O[C@H]2C)c1 [Compound 11, (S)-2-(3-(4-CHLORO-2-FLUOROPHENYL)UREIDO)-N-((6AS,12S,13S,15AS,17R,21S,23AS)-2,13,17,21-TETRAMETHYL-6,11,15,20,23-PENTAOXOOCTADECAHYDRO-2H,6H,11H,15H-PYRAZINO[2,1-I]DIPYRROLO[2,1-C:2′,1′-L][1]OXA[4,7,10,13]TETRAAZACYCLOHEXADECIN-12-YL)-3-(M-TOLYL)PROPANAMIDE] ({NH(4-Cl-2-F-phenyl)-CO}-[Phe(3-Me)][aThr]P[Piperazine(2S-CO,4-Me)]A[Pro(4R-Me)]; ester 2-C) | 0.078 (≈ 0.0655 µg/mL) | 0.039 (≈ 0.0327 µg/mL) | 0.078 (≈ 0.0655 µg/mL) | 5040 | 5000 | 9127.72 | 33.1 | 1.35 | 2.28 | 0.91 ± 0.10 h | 97.9 ± 0.3 |  |  |  |  | 
Cc1cccc(C[C@H](NC(=O)Nc2ccc(Cl)cc2F)C(=O)N[C@H]2COC(=O)[C@@H]3C[C@@H](C)CN3C(=O)[C@H](C)NC(=O)[C@@H]3CCCCN3C(=O)[C@@H]3C[C@H](N)CN3C2=O)c1 [Compound 12, (S)—N-((2R,6S,8AS,14AS,16S,20S,23AS)-16-AMINO-2,6-DIMETHYL-5,8,14,19,23-PENTAOXOOCTADECAHYDRO-1H,5H,14H,19H-PYRIDO[2,1-I]DIPYRROLO[2,1-C:2′,1′-L][1]OXA[4,7,10,13]TETRAAZACYCLOHEXADECIN-20-YL)-2-(3-(4-CHLORO-2-FLUOROPHENYL)UREIDO)-3-(M-TOLYL)PROPANAMIDE] | 0.313 (≈ 0.258 µg/mL) | 0.156 (≈ 0.129 µg/mL) | 1.25 (≈ 1.03 µg/mL) |  |  |  |  |  |  | 3.34 ± 0.6 h | 99.9 ± 0.2 |  |  |  |  | 
C[C@@H]1C[C@H]2C(=O)O[C@@H](C)[C@H](NC(=O)[C@H](Cc3cc(F)cc(F)c3)NC(=O)Nc3ccc4c(c3)CCN4C)C(=O)N3CCC[C@H]3C(=O)N3CCOC[C@H]3C(=O)N[C@@H](C)C(=O)N2C1 [Compound 32] ({NH(1-Me-indolin-5-yl)-CO}-[Phe(3,5-F2)][aThr]P[Morpholine(3S-CO)]A[Pro(4R-Me)]; ester 2-C) |  |  |  |  |  |  |  |  |  |  |  | 0.156 (≈ 0.133 µg/mL) | 0.078 (≈ 0.0664 µg/mL) | 0.313 (≈ 0.266 µg/mL) | 2.66 ± .66 h | 83.0 ± 3.0
C[C@@H]1C[C@H]2C(=O)OC[C@H](NC(=O)[C@H](Cc3cc(F)cc(F)c3)NC(=O)Nc3ccc(Cl)cc3F)C(=O)N3CCC[C@H]3C(=O)N3CCN(C)C[C@H]3C(=O)N[C@@H](C)C(=O)N2C1 [Compound 34] ({NH(4-Cl-2-F-phenyl)-CO}-[Phe(3,5-F2)]SP[Piperazine(2S-CO,4-Me)]A[Pro(4R-Me)]; ester 2-C) | 0.078 (≈ 0.0661 µg/mL) | 0.039 (≈ 0.033 µg/mL) | < 0.02 |  |  |  |  |  |  | 0.77 ± .775 h | 96.5 ± 6.5 |  |  |  |  | 
